What all share (assay): inhibition of tumour cell growth, NCI panel, 48 h
In assay [1] the test system is HCT-15 colon.
Assay [2] relates to SF-268 CNS.
In assay [3] the test system is OVCAR-4 ovarian.
In assay [4] the test system is SF-539 CNS.
For assay [5], the system named is CAKI-1 renal.
For assay [6], the system named is MDA-MB-231 breast.
In assay [7] the test system is SW-620 colon.
The test system of assay [8] is UO-31 renal.
Assay [9] relates to OVCAR-3 ovarian.
In assay [10] the test system is K-562 leukemia.

GI50 and TGI data for 14 compounds are collected here from PubChem BioAssay (NCI).

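Interpolation was linear, between the two tested concentrations surrounding the appropriate level; five concentrations were tested over 48 hours in 96-well plates. GI50 = concentration required for 50% inhibition of growth. TGI denotes the concentration required for complete inhibition of growth.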

On to `C[C@]12CC[C@H]3[C@@H](C[C@@H]4SC(Nc5cccc(F)c5)=N[C@@]45CC(=O)CC[C@]35C)[C@@H]1CCC2=O`, for which the GI50 in assay [1] was 1.58 µM; in assay [2], 3.09 µM; in [3], 2.71 µM; in assay [4], 1.34 µM; in assay [5] it was 1.99 µM; in assay [6], 2.11 µM. Also, the GI50 in assay [7] was 2.33 µM; in [8], 1.67 µM; in assay [9], 1.72 µM. The TGI is 4.08 µM in [1]; 11.1 µM in assay [2]; over 100 µM in assay [3]; 2.94 µM in [4]; 5.73 µM in assay [5]; 4.59 µM in assay [6]. Further, the TGI in assay [7] was determined as 4.99 µM; in assay [8], 3.59 µM; in assay [9] it was 3.3 µM.

As to `O=C1OC(c2ccc([N+](=O)[O-])cc2)=N/C1=C\c1ccc(O)cc1`, the TGI in [1], in assay [2], in assay [3], in assay [4], in assay [5] and in assay [6] was over 100 µM each time. The TGI in [7], in assay [9] and in assay [10] was over 100 µM throughout.

For `C[C@]12CC[C@@H]3c4ccc(O)cc4CC[C@H]3[C@@H]1CC[C@@H]2NS(=O)(=O)c1cccc(Br)c1`, the GI50 is 2.77 µM in [1]; 3.98 µM in assay [2]; 2.45 µM in [3]; 2.6 µM in assay [4]; 2.99 µM in assay [5]; 3.88 µM in [6]. For the same compound, the values for the GI50 in assay [7], in assay [8] and in assay [10] were 4.07 µM, 2.03 µM and 3.59 µM, respectively. For the same compound, the TGI came to 11.1 µM in assay [1]; 16.6 µM in [2]; 9.98 µM in assay [3]; 8.8 µM in [4]; 11 µM in assay [5]; 13.9 µM in [6]. For the same compound, the TGI came to 18 µM in assay [7], 8.72 µM in assay [8] and 14.8 µM in [10].

For `O=C1C(Nc2ccccn2)=C(I)C(=O)c2ncccc21`, the GI50 in assay [1] is 0.226 µM; in assay [2], 1.34 µM; in [3], 1.07 µM; in assay [4] it was 1.37 µM; in [5] it was 0.826 µM; in assay [6], 1.53 µM. Further, the values for the GI50 in assay [7], in assay [9] and in assay [10] were 0.33 µM, 0.378 µM and 0.367 µM, respectively. Besides, the TGI in assay [1] was determined as 1.39 µM; in [2] it was 3.8 µM; in [3] it was 2.27 µM; in assay [4], 2.69 µM; in assay [5], 2.12 µM; in assay [6] it was 4.86 µM. The TGI is 1.63 µM in assay [7], 1.6 µM in assay [9] and 4.29 µM in assay [10].

As to `C/C=C(/C)C(=O)OC1C=C(CO)C(=O)C(OC(=O)/C(C)=C\C)C1C(C)C` (stereo not drawn), the GI50 in assay [1] was 0.46 µM; in assay [2], 1.46 µM; in [3], 1.12 µM; in assay [4], 1.38 µM; in [5], 1.34 µM; in assay [6] it was 0.751 µM. Moreover, the results for the GI50 in assay [8], in [9] and in assay [10] were 1.29 µM, 0.48 µM and 0.401 µM, respectively. The TGI in assay [1] came to 1.86 µM; in assay [2] it was 3.05 µM; in assay [3], 2.49 µM; in [4] it was 2.69 µM; in assay [5], 2.62 µM; in assay [6], 1.9 µM. For the same compound, the figures for the TGI in assay [8], in assay [9] and in assay [10] were 2.57 µM, 1.66 µM and 19.2 µM, respectively.

Take `COc1ccc2cc(C(=O)/C=C/c3ccc(OC)c(OC)c3)ccc2c1`: the GI50 in assay [1] was 3.11 µM; in [2] it was 19.2 µM; in assay [4] it was 3.77 µM; in assay [5], 21 µM; in assay [6], 4.75 µM; in assay [7], 4.21 µM. For the same compound, the GI50 is 23.3 µM in assay [8], 14.8 µM in [9] and 5 µM in assay [10]. Besides, the TGI was over 100 µM in assay [1]; 55.1 µM in assay [2]; 16.3 µM in [4]; 97.6 µM in [5]; 42.8 µM in assay [6]; 27.1 µM in [7]. Besides, the TGI in assay [8] was 49.3 µM; in assay [9] it was over 100 µM; in [10], 94.9 µM.

With `O=C(N/N=C/c1cc2ccccc2c2ccccc12)c1cc(O)c(O)c(O)c1`, the GI50 is 3.22 µM in [1]; 3.74 µM in assay [2]; 2.38 µM in assay [3]; 2.17 µM in [4]; 3.72 µM in assay [5]; 2.7 µM in assay [6]. Besides, the GI50 in assay [7] was 2.96 µM; in assay [8], 2.64 µM; in [10] it was 3.57 µM. For the same compound, the TGI amounted to 25.4 µM in [1]; 14.7 µM in assay [2]; 35.8 µM in assay [3]; 5.8 µM in assay [4]; 19.1 µM in assay [5]; 10.1 µM in assay [6]. Moreover, the figures for the TGI in [7], in [8] and in assay [10] were 12.4 µM, 16.5 µM and 51 µM, respectively.

Regarding `CC1=COC2=C(C)C(=O)C(=O)c3c(C)ccc1c32`, the TGI was 11.5 µM in assay [1]; 36.6 µM in assay [2]; 13.5 µM in [3]; 10.7 µM in assay [4]; over 63.4 µM in [5]; 23.6 µM in assay [6]. Besides, the TGI in assay [7] was 28.9 µM; in assay [8] it was 40.6 µM; in assay [10], over 100 µM.

Regarding `COc1ccc(/C=N/NC(=O)O)cc1`, the TGI in assay [1], in assay [3], in [4], in assay [5], in [6] and in assay [7] was over 100 µM each time. For the same compound, the TGI in [8], in assay [9] and in assay [10] was over 100 µM throughout.

With `O=C(C#Cc1c[nH]c(=O)[nH]c1=O)c1ccccc1`, the TGI in [1] was determined as 24.9 µM; in assay [2], 26.8 µM; in [3], 27.1 µM; in assay [4] it was 14.5 µM; in assay [5] it was 32.3 µM; in [7], 18.9 µM. Besides, the TGI in assay [8] was found to be 31.8 µM; in [9], 5.99 µM; in assay [10], 14.4 µM.

With `COC(=O)/C(=C/N1CCN(C(=O)c2ccco2)C1=S)C(C)=O`, the GI50 in assay [1] is 2.22 µM; in [2], 5.84 µM; in assay [3], 17.4 µM; in [5] it was 2.82 µM; in assay [6], 9.01 µM; in [7], 3.9 µM. Further, the GI50 in [8] was 13.5 µM; in assay [9] it was 2.67 µM; in [10], 10.2 µM. The TGI in assay [1] amounted to 5.77 µM; in assay [2], 25.6 µM; in assay [3] it was 42.9 µM; in [5] it was 8.52 µM; in [6], 26.5 µM; in [7] it was 12.5 µM. Further, the results for the TGI in assay [8], in assay [9] and in assay [10] were 30.9 µM, 11.6 µM and over 100 µM, respectively.

For `CCCCCN(CCCCC)C(=O)[C@@H](CCC(=O)OCc1ccccc1)NC(=O)c1cc2ccccc2[nH]1`, the TGI in [1], in assay [2], in assay [3], in assay [4], in [5] and in assay [7] was over 100 µM each time. In addition, the TGI in assay [8], in assay [9] and in assay [10] was over 100 µM each time.

In the case of `Cc1cc(N2CCN(C)CC2)nc(NC2CCCC(Nc3ccnc4cc(Cl)ccc34)C2)n1` (stereo not drawn), the GI50 in assay [1] is 0.973 µM; in [2], 1.97 µM; in [3] it was 1.9 µM; in [4], 1.68 µM; in [6] it was 1.78 µM; in [7], 2.48 µM. Moreover, the GI50 in assay [8] was 1.49 µM; in assay [9], 2.25 µM; in [10], 0.451 µM. The TGI in assay [1] amounted to 3.1 µM; in assay [2] it was 6.35 µM; in assay [3] it was 6.24 µM; in assay [4], 3.31 µM; in [6] it was 4.25 µM; in assay [7], 10.8 µM. Also, the TGI in assay [8] amounted to 2.86 µM; in [9], 5.75 µM; in assay [10] it was 3.92 µM.

As to `O=C1/C(=C\c2ccccc2)c2ccccc2N1Cc1ccccc1`, the TGI in [1] worked out at 14.5 µM; in assay [2], 14.8 µM; in [3] it was 27.5 µM; in assay [5], 13.2 µM; in assay [6] it was 13.3 µM; in [7], 15.1 µM. Also, the TGI was 15.8 µM in assay [8], 11.9 µM in assay [9] and over 31.3 µM in [10].
